Data reported in patent US5218123A, “Didehydrotryptophan derivatives and pharmaceutical use thereof” (Warner-Lambert Company, priority 1992, dated 1993).

Key:
Central CCK-B Receptors = target: T1, Central CCK-B Receptors (Mus musculus, UniProt P56481); experiment: Binding to central CCK-B receptors: displacement of tritiated-pentagastrin from cerebral cortical membranes; set-up: species or system mouse (male CFLP mice); conditions: tritiated-pentagastrin 2 nM, 23° C., pH 7.2
T1 construct: from tissue; host or cells: cerebral cortex membranes of male CFLP mice (30 to 40 g)
T1 sequence (P56481 1-453): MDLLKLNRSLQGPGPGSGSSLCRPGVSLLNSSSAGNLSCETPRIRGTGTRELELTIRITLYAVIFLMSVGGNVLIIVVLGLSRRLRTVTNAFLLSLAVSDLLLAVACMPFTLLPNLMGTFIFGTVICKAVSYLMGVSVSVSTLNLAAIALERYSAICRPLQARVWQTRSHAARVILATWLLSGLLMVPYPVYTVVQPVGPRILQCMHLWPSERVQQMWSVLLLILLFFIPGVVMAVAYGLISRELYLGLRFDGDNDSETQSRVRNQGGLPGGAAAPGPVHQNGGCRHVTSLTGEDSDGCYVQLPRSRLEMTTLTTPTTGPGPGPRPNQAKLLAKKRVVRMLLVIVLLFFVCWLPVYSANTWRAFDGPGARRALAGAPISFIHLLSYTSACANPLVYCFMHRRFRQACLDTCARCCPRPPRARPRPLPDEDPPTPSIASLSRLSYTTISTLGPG
Experimental: The biological activity of compounds of the present invention was evaluated employing an initial screening test which rapidly and accurately measured the binding of the tested compound to known CCK receptor sites. […] (See Hays, et al, Neuropeptides 1:53-62, 1980; and Satuer et al, Science 208:1155-1156, 1980.)
In this screening test, the cerebral cortices taken from male CFLP mice weighing between 30 to 40 g were dissected on ice, weighed, and homogenized in 10 volumes of 50 mM Tris-HCl buffer (pH 7.4 at 0°-4° C.). The resulting suspension was centrifuged, the supernate was discarded, and the pellet was washed by resuspension in Tris-HCl buffer followed by recentrifugation. The final pellet was resuspended in 20 volumes of […] buffer (pH 7.2 at 23° C.) containing 130 mM NaCl, […], […], […], 5 mg/mL bovine albumin, and bacitracin (0.25 mg/mL).
In saturation studies, cerebral cortical membranes were incubated at 23° C. for 120 minutes in a final volume of 500 μL of Hepes incubation buffer (pH 7.2) together with 0.2-20 nM tritiated-pentagastrin (Amersham International, England).
In the displacement experiments, membranes were incubated with a single concentration (2 nM) of ligand, together with increasing concentrations ([…] to 10^-4 M) of competitive test compound. In each case, the nonspecific binding was defined as that persisting in the presence of the unlabeled octapeptide CCK26-33 (10^-6 M).
Following incubation, radioactivity bound to membranes was separated from that free in solution by rapid filtration through Whatman GF/B filters and washed three times with 4 mL of ice cold Tris-HCl buffer. Filters from samples incubated with tritiated pentagastrin were placed in polyethylene vials with 4 mL of scintillation cocktail, and the radioactivity was estimated by liquid scintillation spectrometry (efficiency 47% to 52%).
The specific binding to CCK receptor sites was defined as the total bound tritiated-pentagastrin minus the amount of tritiated-pentagastrin bound in the presence of 10^-6 octapeptide, CCK26-33.
Saturation curves for specific tritiated-pentagastrin binding to mouse cortical membranes were analyzed by the methods of Scatchard (Ann. New York Acad. Sci. 51:660-672, 1949), and Hill (J. Physiol. 40:IV-VIII, 1910), to provide estimates for the maximum number of binding sites (Bmax) and the equilibrium dissociation constant (Ka).
In displacement experiments, inhibition curves were analyzed by either logit-log plots or the iterative curve fitting computer program ALLFIT (DeLean, Munson, and Redbard, 1978) to provide estimates of the IC50 and nH (apparent Hill coefficient values). (IC50 values were defined as the concentration of test compound required to produce 50% inhibition of specific binding.)
The inhibition constant (Ki) of the test compound was then calculated according to the Cheng Prusoff equation: [formula] where [L]is the concentration of radiolabel and Ka is the equilibrium dissociation constant.
^a Binding affinity protocol Horwell, et al, J. Med. Chem. 34:404,

[1] = tested on: hyperactivity caused by the injection of amphetamine into the nucleus accumbens of the rat; experiment: Reduction of hyperactivity caused by intra-accumbens amphetamine (locomotor activity, antipsychotic test); format: in vivo, rat (male Sprague Dawley (CD) Bradford strain); conditions: bilateral injection of amphetamine (20 μg) into the nucleus accumbens, 20 to 40 minutes after injection
Experimental: The compounds of the instant invention are useful as antipsychotic agents. The compounds are tested for their ability to reduce the effects of intra-accumbens amphetamine in the rat as described hereinafter.
Male Sprague Dawley (CD) Bradford strain rats are used. The rats are housed in groups of five at a temperature of 21°±2° C. on a 12-hour light-dark cycle of lights-on between 07 hours 00 minutes and 20 hours 00 minutes. Rats are fed CRM diet (Labsure) and allowed water ad libitum.
Rats are anesthetized with chloral hydrate (400 mg/kg^-1 SC) and placed in a Kopf stereotaxic frame. Chronically indwelling guide cannulae (constructed of stainless steel tubing 0.65 mm diameter held bilaterally on Parspex holders) are implanted using standard stereotaxic techniques to terminate 3.5 mm above the center of the nucleus accumbens (Ant. 9.4, Vert. 0.0, Lat. 1.6) or 5.0 mm above the central nucleus of the amygdala (Ant. 5.8, Vert. -1.8, lat. ±4.5) (atlas of De Groot, 1959). The guides are kept patent during a 14 day recovery period using stainless steel stylets, 0.3 mm diameter, which extend 0.5 mm beyond the guide tips.
Rats are manually restrained and the stylets removed. […]
The abilities of the compounds (20) and (20A) to inhibit the hyperactivity caused by the injection of amphetamine into the nucleus accumbens of the rat is measured. […]

O=C(O)C[C@H](Cc1ccccc1)NC(=O)C(=Cc1c[nH]c2ccccc12)NC(=O)OC1C2CC3CC(C2)CC1C3 (mixture of isomers) [Example 5, (E/Z)-N-[α,β-Didehydro-N-[(tricyclo[3.3.1.1^3,7]dec-2-yloxy)carbonyl]tryptophyl]-L-3-(phenylmethyl)-β-alanine]
Ki (Central CCK-B Receptors): 0.3 nM

COC(=O)CC(=O)Nc1ccccc1CCNC(=O)/C(=C/c1c[nH]c2ccccc12)NC(=O)OC1C2CC3CC(C2)CC1C3 (stereo not shown) [4, step 2]
Ki (Central CCK-B Receptors): 616 nM

O=C(N/C(=C\c1c[nH]c2ccccc12)C(=O)NCCc1ccccc1)OC1C2CC3CC(C2)CC1C3 (stereo not shown) [Example 1, Carbamic acid, [1-(1H-indol-3-ylmethylene)-2-oxo-2-[(2-phenylethyl)amino]ethyl]-, tricyclo[3.3.1.1^3,7]dec-2-yl ester, (Z)-]
Ki (Central CCK-B Receptors): 1520 nM

O=C(O)C[C@H](Cc1ccccc1)NC(=O)/C(=C/c1c[nH]c2ccccc12)NC(=O)OC1C2CC3CC(C2)CC1C3 (stereo partly drawn) [Example 2, (Z)-N-[α,β-Didehydro-N-[(tricyclo[3.3.1.1^3,7]dec-2-yloxy)carbonyl]tryptophyl]-L -3-(phenylmethyl)-β-alanine]
Ki (Central CCK-B Receptors): 13 nM

O=C(N/C(=C\c1c[nH]c2ccccc12)C(=O)NCCc1ccccn1)OC1C2CC3CC(C2)CC1C3 (stereo not shown) [Example 3, Tricyclo[3.3.1.1^3,7]dec-2-yl (Z)-[1-(1H-indol-3-ylmethylene) -2-oxo-2-[[2-(2-pyridinyl)ethyl]amino]ethyl]carbamate]
Ki (Central CCK-B Receptors): 507 nM

O=C(O)CC(=O)Nc1ccccc1CCNC(=O)/C(=C/c1c[nH]c2ccccc12)NC(=O)OC1C2CC3CC(C2)CC1C3 (stereo not shown) [Example 4, (Z)-3-[[2-[2-[[3-(1H-indol-3-yl)-1-oxo-2-[[(tricyclo[3.3.1.1^3,7]dec-2-yloxy)carbonyl]amino]-2-propenyl]amino]ethyl]phenyl]amino]-3-oxopropanoic acid]
Ki (Central CCK-B Receptors): 209 nM

CC(N)Cc1ccccc1 (stereo not shown) [amphetamine]
peak hyperactivity [1]: 50 to 60 counts 5 minutes^-1
